In US12195490B2, “STRAD-binding agents and uses thereof” (The Regents of the University of California, priority 2020, dated 2025):

How the values were obtained:
[1] = system: most sensitive cancer cell line; test: cell activity: CTG anti-proliferation in most sensitive cancer cell line; assay type: cell-based; conditions: APA analogs
LKB1 = target: T1, LKB1 (Homo sapiens, UniProt Q15831+Q7RTN6); test: in vitro LKB1 functional activity; assay type: biochemical; conditions: APA analogs
T1 sequence (Q15831 1-433): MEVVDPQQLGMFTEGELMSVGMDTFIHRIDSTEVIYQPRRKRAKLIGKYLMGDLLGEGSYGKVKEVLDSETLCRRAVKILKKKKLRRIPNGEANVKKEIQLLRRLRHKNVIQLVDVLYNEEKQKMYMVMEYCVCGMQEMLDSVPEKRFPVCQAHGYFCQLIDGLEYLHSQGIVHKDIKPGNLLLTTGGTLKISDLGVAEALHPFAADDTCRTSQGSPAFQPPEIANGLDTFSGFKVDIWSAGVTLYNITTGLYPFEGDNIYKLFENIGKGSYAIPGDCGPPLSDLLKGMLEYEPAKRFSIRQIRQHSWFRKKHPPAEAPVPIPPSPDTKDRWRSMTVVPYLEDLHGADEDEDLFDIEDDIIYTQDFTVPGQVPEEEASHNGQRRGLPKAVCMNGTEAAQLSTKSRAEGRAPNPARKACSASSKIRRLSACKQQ
T1 sequence (Q7RTN6 1-431): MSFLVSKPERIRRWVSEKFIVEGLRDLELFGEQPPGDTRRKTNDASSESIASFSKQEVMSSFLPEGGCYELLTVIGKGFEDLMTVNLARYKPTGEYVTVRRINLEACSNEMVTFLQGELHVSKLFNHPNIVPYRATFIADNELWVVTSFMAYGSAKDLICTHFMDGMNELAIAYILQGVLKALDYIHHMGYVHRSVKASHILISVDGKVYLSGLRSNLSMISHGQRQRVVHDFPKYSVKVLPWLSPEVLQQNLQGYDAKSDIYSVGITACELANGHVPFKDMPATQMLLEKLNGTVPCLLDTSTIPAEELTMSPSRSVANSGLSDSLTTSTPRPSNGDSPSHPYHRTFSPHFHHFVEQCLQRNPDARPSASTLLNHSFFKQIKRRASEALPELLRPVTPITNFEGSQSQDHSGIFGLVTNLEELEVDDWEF
T1 sequence (Q9Y376 1-341 partner): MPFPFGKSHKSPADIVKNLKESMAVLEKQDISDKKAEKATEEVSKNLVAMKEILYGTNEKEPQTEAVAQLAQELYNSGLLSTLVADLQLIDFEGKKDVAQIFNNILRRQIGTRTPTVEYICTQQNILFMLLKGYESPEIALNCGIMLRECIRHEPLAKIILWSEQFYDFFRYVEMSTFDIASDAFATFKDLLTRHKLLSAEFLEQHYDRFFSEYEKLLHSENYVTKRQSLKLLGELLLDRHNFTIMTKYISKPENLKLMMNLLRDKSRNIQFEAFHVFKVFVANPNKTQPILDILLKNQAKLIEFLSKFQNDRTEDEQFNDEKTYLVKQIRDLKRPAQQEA

SMILES	LKB1 % Act. Increase (LKB1)	IC50 [1]
CO[P@@](C)(=O)CS(=O)(=O)c1ccc(NC(=O)c2nc(-c3ccc(C)cc3)cnc2N)cc1 [SU20668-0519, (R)-methyl (4-(3-amino-6-p-tolylpyrazine-2-carboxamido)phenylsulfonyl)methyl(methyl)phosphinate]	A (A=>4000%)	< 3 µM
COP(=O)(CS(=O)(=O)c1ccc(NC(=O)c2nc(-c3ccc(C)cc3)cnc2N)cc1)OC [SU20668-0329, dimethyl (4-(3-amino-6-p-tolylpyrazine-2-carboxamido)phenylsulfonyl)methylphosphonate]	A (A=>4000%)	< 3 µM
Cc1ccc(-c2cnc(N)c(C(=O)Nc3ccc(S(N)(=O)=O)c(F)c3)n2)cc1 [SU20668-0305, 3-amino-N-(3-fluoro-4-sulfamoylphenyl)-6-p-tolylpyrazine-2-carboxamide]	C (C=199-1000%)	< 3 µM
CCOP(=O)(OCC)C(F)S(=O)(=O)c1ccc(NC(=O)c2nc(-c3ccc(C)cc3)cnc2N)cc1 (stereo not shown) [SU20668-0485]		< 3 µM
CCOP(=O)(C[S@SP3](=O)(=O)c1ccc(NC(=O)c2nc(-c3ccc(C)cc3)cnc2N)cc1)OCC [SU20668-0313, diethyl (((4-(3-amino-6-(p-tolyl)pyrazine-2-carboxamido)phenyl)sulfonyl)methyl)phosphonate]	C (C=199-1000%)	< 3 µM
CCOP(=O)(CC)CS(=O)(=O)c1ccc(NC(=O)c2nc(-c3ccc(C)cc3)cnc2N)cc1 (stereo not shown) [SU20668-0515, ethyl (4-(3-amino-6-p-tolylpyrazine-2-carboxamido)phenylsulfonyl)methyl(ethyl)phosphinate]	B (B=399-2000%)	< 3 µM
CCO[P@@](=O)(CC)CS(=O)(=O)c1ccc(NC(=O)c2nc(-c3ccc(C)cc3)cnc2N)cc1 [SU20668-0522, (S)-ethyl (4-(3-amino-6-p-tolylpyrazine-2-carboxamido)phenylsulfonyl)methyl(ethyl)phosphinate]	B (B=399-2000%)	< 3 µM
CCNP(=O)(CS(=O)(=O)c1ccc(NC(=O)c2nc(-c3ccc(C)cc3)cnc2N)cc1)OCC (stereo not shown) [SU20668-0480, ethyl P-(4-(3-amino-6-p-tolylpyrazine-2-carboxamido)phenylsulfonyl)methyl-N-ethylphosphonamidate]	D (D=<1000%)	
CCOP(=O)(CS(=O)(=O)c1ccc(NC(=O)c2nc(-c3ccc(C)cc3)cnc2N)cc1F)OCC [SU20668-0482, diethyl (4-(3-amino-6-p-tolylpyrazine-2-carboxamido)-2-fluorophenylsulfonyl)methylphosphonate]	D (D=<1000%)	
Cc1ccc(-c2cnc(N)c(C(=O)Nc3ccc(C(=O)O)cc3)n2)cc1 [SU20668-0279, 4-(3-amino-6-p-tolylpyrazine-2-carboxamido)benzoic acid]	C (C=199-1000%)	
CCOP(=O)(CS(=O)(=O)c1ccc(NC(=O)c2nc(-c3cc(F)ccc3C#N)cnc2N)cc1)OCC [SU20668-0471, diethyl (4-(3-amino-6-(2-cyano-5-fluorophenyl)pyrazine-2-carboxamido)phenylsulfonyl)methylphosphonate]	D (D=<1000%)	
COP(=O)(OC)C(C)S(=O)(=O)c1ccc(NC(=O)c2nc(-c3ccc(C)cc3)cnc2N)cc1 (stereo not shown) [SU20668-0516, dimethyl 1-(4-(3-amino-6-p-tolylpyrazine-2-carboxamido)phenylsulfonyl)ethylphosphonate]	A (A=>4000%)	
COC(=O)c1ccc(NC(=O)c2nc(-c3ccc(C)cc3)cnc2N)cc1F [SU20668-0307, methyl 4-(3-amino-6-p-tolylpyrazine-2-carboxamido)-2-fluorobenzoate]	D (D=<1000%)	
Cc1ccc(-c2cnc(N)c(C(=O)Nc3cnc(S(C)(=O)=O)nc3)n2)cc1 [SU20668-0303, 3-amino-N-(2-(methylsulfonyl)pyrimidin-5-yl)-6-p-tolylpyrazine-2-carboxamide]	D (D=<1000%)	
Cc1ccc(-c2cnc(N)c(C(=O)Nc3ccc([S@SP3](=O)(=O)CP(=O)(O)O)cc3)n2)cc1 [SU20668-0312, (((4-(3-amino-6-(p-tolyl)pyrazine-2-carboxamido)phenyl)sulfonyl)methyl)phosphonic acid]	C (C=199-1000%)	

The next lines start with results.

LKB1 % Act. Increase (LKB1)	SMILES	IC50 [1]
C (C=199-1000%)	Cc1ccc(-c2cnc(N)c(C(=O)Nc3ccc(S(=O)(=O)NC4COC4)cc3)n2)cc1 [SU20668-0468, 3-amino-N-(4-(N-oxetan-3-ylsulfamoyl)phenyl)-6-p-tolylpyrazine-2-carboxamide]	< 3 µM
C (C=199-1000%)	CC(=O)N[S@SP3](=O)(=O)c1ccc(NC(=O)c2nc(-c3ccc(C)cc3)cnc2N)cc1 [SU20668-0314, N-(4-(N-acetylsulfamoyl)phenyl)-3-amino-6-p-tolylpyrazine-2-carboxamide]	3 to 50 µM
C (C=199-1000%)	CCOC(=O)CS(=O)(=O)c1ccc(NC(=O)c2nc(-c3ccc(C)cc3)cnc2N)cc1 [SU20668-0311, ethyl 2-(4-(3-amino-6-p-tolylpyrazine-2-carboxamido)phenylsulfonyl)acetate]	
C (C=199-1000%)	Cc1ccc(-c2cnc(N)c(C(=O)Nc3ccc(CC(=O)O)cc3)n2)cc1 [SU20668-0330, 2-(4-(3-amino-6-p-tolylpyrazine-2-carboxamido)phenyl)acetic acid]	
C (C=199-1000%)	CC(=O)NS(=O)(=O)c1ccc(NC(=O)c2nc(-c3ccc(CN(C)C)cc3)cnc2N)cc1 [SU20668-0339, N-(4-(N-acetylsulfamoyl)phenyl)-3-amino-6-(4-((dimethylamino)methyl)phenyl)pyrazine-2-carboxamide]	
C (C=199-1000%)	CC(=O)Nc1ccc(-c2cnc(N)c(C(=O)Nc3ccc(S(=O)(=O)NC(C)=O)cc3)n2)cc1 [SU20668-0346, 6-(4-acetamidophenyl)-N-(4-(N-acetylsulfamoyl)phenyl)-3-aminopyrazine-2-carboxamide]	
C (C=199-1000%)	Cc1ccc(-c2cnc(N)c(C(=O)Nc3ccc(CS(N)(=O)=O)cc3)n2)cc1 [SU20668-0331, 3-amino-N-(4-(sulfamoylmethyl)phenyl)-6-p-tolylpyrazine-2-carboxamide]	
C (C=199-1000%)	CCC(=O)NS(=O)(=O)c1ccc(NC(=O)c2nc(-c3ccc(C)cc3)cnc2N)cc1 [SU20668-0325, 3-amino-N-(4-(N-propionylsulfamoyl)phenyl)-6-p-tolylpyrazine-2-carboxamide]	
D (D=<1000%)	CC(=O)NS(=O)(=O)c1ccc(NC(=O)c2nc(-c3cccc(N4CCOCC4)c3)cnc2N)cc1 [SU20668-0377, N-(4-(N-acetylsulfamoyl)phenyl)-3-amino-6-(3-morpholinophenyl)pyrazine-2-carboxamide]	
C (C=199-1000%)	CC(=O)NS(=O)(=O)c1ccc(NC(=O)c2nc(-c3ccc(N)cc3)cnc2N)cc1 [SU20668-0344, N-(4-(N-acetylsulfamoyl)phenyl)-3-amino-6-(4-aminophenyl)pyrazine-2-carboxamide]	
D (D=<1000%)	Cc1ccc(-c2cnc(N)c(C(=O)Nc3ccc(S(=O)(=O)NC(=O)CCOCc4ccccc4)cc3)n2)cc1 [SU20668-0368, 3-amino-N-(4-(N-(3-(benzyloxy)propanoyl)sulfamoyl)phenyl)-6-p-tolylpyrazine-2-carboxamide]	
